Measured values: patent publication US20100184698A1, “USE OF A […] […] A […] AGENT” (priority 2007, published 2010)
Where no end group is shown, it is not given here.

Tests used:
HIV-1IIIB = assay: HIV-1 antiviral assay in CEM-SS cells
[1] = tested on: hepatitis B virus (HBV) ayw strain in HepG2-2.2.15 cells; assay: HBV experimental assay system (secreted HBV DNA, TaqMan PCR); assay type: cell-based; conditions: 10 micrograms per ml; 6 days; combination 0.95 mole peptide 1 and 1.05 mole peptide 2
[2] = tested on: Interleukin-4 (IL-4) production in murine spleen cells; assay: Th1/Th2 cytokine profiling assay: IL-4; assay type: cell-based, Balb/c mice; conditions: 10 micrograms per ml, Ovalbumin restimulation, 72 hours
[3] = tested on: Interferon-γ (IFN-γ) production in murine spleen cells; assay: Th1/Th2 cytokine profiling assay: IFN-γ; assay type: cell-based, Balb/c mice; conditions: 10 micrograms per ml; Ovalbumin restimulation, 72 hours; combination 0.95:1.05 mole
[4] = tested on: Interleukin-2 (IL-2) production in murine spleen cells; assay: Th1/Th2 cytokine profiling assay: IL-2; assay type: cell-based, Balb/c mice; conditions: 10 micrograms per ml; Ovalbumin restimulation, 72 hours
[5] = tested on: Interleukin-5 (IL-5) production in murine spleen cells; assay: Th1/Th2 cytokine profiling assay: IL-5; assay type: cell-based, Balb/c mice; conditions: 10 micrograms per ml, Ovalbumin restimulation, 72 hours
[6] = tested on: Tumor Necrosis Factor-α (TNF-α) production in murine spleen cells; assay: Th1/Th2 cytokine profiling assay: TNF-α; assay type: cell-based, Balb/c mice; conditions: 10 micrograms per ml, Ovalbumin restimulation, 72 hours
[7] = tested on: Primary Human endothelial cells (HUVEC); assay: Endothelial cell migration assay; assay type: cell-based; conditions: 10 micrograms per ml; 22 hours
Procedure: Thereafter, designated concentration of testing peptides—10 micrograms per ml—was added in duplicate wells.

HUVEC = assay: Endothelial tube formation assay; assay type: cell-based, human; conditions: 10 micrograms per ml; 20 hours
Excerpt: Positive control was vehicle only.

HCMV strain AD169 = conditions: for inhibition of HCMV plaque formation as compared to the virus control experiment: 10 micrograms per ml, 7-10 days

| Compound | antiviral activity of positive control compounds (HIV-1IIIB) | inhibition of HBV replication as compared to the virus control infection [1] [%] | production of IFN-y, decreased by [3] [%] | inhibition of the migration of human endothelial cells [7] [%] | inhibition of the tube formation of human endothelial cells (HUVEC) [%] | inhibition of HCMV plaque formation as compared to the virus control experiment (HCMV strain AD169) | further results |
| --- | --- | --- | --- | --- | --- | --- | --- |
| Cc1cn([C@H]2C[C@H](N=[N+]=[N-])[C@@H](CO)O2)c(=O)[nH]c1=O [AZT] | expected levels of antiviral activity |  |  |  |  |  |  |
| CC(C)(C)NC(=O)[C@@H]1CN(Cc2cccnc2)CCN1C[C@@H](O)C[C@@H](Cc1ccccc1)C(=O)N[C@H]1c2ccccc2C[C@H]1O [indinavir] | expected levels of antiviral activity |  |  |  |  |  |  |
| CCNC(=O)[C@@H]1CCCN1C(=O)[C@H](CCCN=C(N)N)NC(=O)[C@H](CC(C)C)NC(=O)[C@@H](Cc1c[nH]c2ccccc12)NC(=O)[C@H](Cc1ccc(O)cc1)NC(=O)[C@H](CO)NC(=O)[C@H](Cc1c[nH]c2ccccc12)NC(=O)[C@H](Cc1cnc[nH]1)NC(=O)[C@@H]1CCC(=O)N1 [Peptide 1, Pyr-His-Trp-Ser-Tyr-D-Trp-Leu-Arg-Pro-NHEt] |  | 15.1 | 31.4 | 3 | 7 | did not inhibit | production of IL-4, induced by [2]: 32.1%; production of IL-2, decreased by [4]: 53.2%; production of IL-5, decreased by [5]: 27.6%; change of the production of TNF-alpha ([6]; combination 0.95:1.05 mole): did not significantly change |
| Nc1nc(O)c2ncn(COC(CO)CO)c2n1 [Ganciclovir, reference compound] |  |  |  |  |  |  | antiviral activity of positive control compound (HCMV strain AD169; positive control, MRC-5 cells, HCMV): expected levels of antiviral activity |
| Ile-Asn-Leu-Lys-Ala-Leu-Ala-Ala-Leu-Ala-Lys-Lys-Ile-Leu-NH2 (INLKALAALAKKIL-NH2) [Peptide 2] |  | 40.6 | 54 | 23 | 10 | did not inhibit | change of the production of IL-4 ([2]; combination 0.95:1.05 mole): did not significantly change; production of IL-2, increased by [4]: 77%; change of the production of IL-5 ([5]; combination 0.95:1.05 mole): did not significantly change; production of TNF-a, decreased by [6]: 61.3% |
